Test results taken from patent US10065990B2, “Cyclic peptide compound, and preparation method, pharmaceutical composition and use thereof” (HANGZHOU GUANYU BIO-MEDICAL CO., LTD, priority 2013, dated 2018).
Read-outs that look alike come from different tables or passages of the source.

Tests used:
HDAC7 = biological target: T1, HDAC7 (Homo sapiens, UniProt Q8WUI4); assay: HDAC biochemical activity measurement (fluorescent substrate deacetylation);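 note: fluorogenic deacetylation assay using acetyl-lysine substrate at 20 µM, enzyme and compound incubated 30 min at 37 °C, then developer added, fluorescence read at 360/460 nm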; settings: HDAC7; 37° C. 30 minutes
T1 sequence (Q8WUI4 1-952): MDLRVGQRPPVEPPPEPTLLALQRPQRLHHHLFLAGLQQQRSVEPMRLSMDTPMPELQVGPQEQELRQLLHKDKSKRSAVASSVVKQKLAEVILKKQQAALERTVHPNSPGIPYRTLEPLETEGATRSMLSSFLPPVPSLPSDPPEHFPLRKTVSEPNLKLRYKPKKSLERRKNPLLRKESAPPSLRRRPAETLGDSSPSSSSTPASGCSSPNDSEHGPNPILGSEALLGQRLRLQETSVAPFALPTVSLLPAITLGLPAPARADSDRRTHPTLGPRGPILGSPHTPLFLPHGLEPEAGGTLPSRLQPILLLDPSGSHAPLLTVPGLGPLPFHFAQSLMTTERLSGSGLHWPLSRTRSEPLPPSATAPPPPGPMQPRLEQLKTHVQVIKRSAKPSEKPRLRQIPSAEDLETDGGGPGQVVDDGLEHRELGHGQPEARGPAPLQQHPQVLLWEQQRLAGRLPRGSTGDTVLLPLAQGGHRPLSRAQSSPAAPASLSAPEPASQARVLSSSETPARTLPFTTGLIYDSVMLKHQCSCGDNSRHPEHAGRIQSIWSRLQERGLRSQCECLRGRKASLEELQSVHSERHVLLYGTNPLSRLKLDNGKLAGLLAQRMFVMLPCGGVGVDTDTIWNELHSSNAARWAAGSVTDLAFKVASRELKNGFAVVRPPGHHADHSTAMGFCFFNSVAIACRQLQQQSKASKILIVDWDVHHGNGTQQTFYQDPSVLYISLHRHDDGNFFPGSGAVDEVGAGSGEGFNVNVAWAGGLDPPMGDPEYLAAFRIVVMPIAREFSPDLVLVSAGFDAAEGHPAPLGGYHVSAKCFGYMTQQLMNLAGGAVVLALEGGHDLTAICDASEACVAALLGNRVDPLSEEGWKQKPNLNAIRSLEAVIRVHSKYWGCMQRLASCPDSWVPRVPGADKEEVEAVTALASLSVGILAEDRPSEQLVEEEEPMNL

[1] = system: H1975 (non-small cell lung adenocarcinoma); assay: MTT cancer cell growth inhibition; assay type: cell-based; settings: Homo sapiens, NCI-H1975, 72 h, MTT, 72 hours incubation, H1975 cells; read-out: GI50 H1975
Summary of the method: (§1)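 Following overnight attachment of 1500 cells per well, each line was exposed to test drug (final 10^−5 to 10^−10 M) for 72 h in a humidified 37° C., 5% CO2 incubator. Four hours with MTT, DMSO dissolution of formazan, and a 570 nm reading yielded viability data used for GI50.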

[2] = system: HT1080 (human fibrosarcoma cells); assay: MTT cancer cell growth inhibition; assay type: cell-based; settings: Homo sapiens, HT-1080, 72 h, MTT, 72 hours incubation, read-out: GI50 HT1
Summary of the method: as §1

[3] = system: Hela (human cervical cancer cells); assay: MTT cancer cell growth inhibition; assay type: cell-based; settings: Homo sapiens, HeLa, 72 h, MTT, 72 hours incubation, read-out: GI50 Hela
Summary of the method: as §1

[4] = system: KBM5-T315I (human chronic myelogenous leukemia); assay: MTT cancer cell growth inhibition; assay type: cell-based; settings: Homo sapiens, 72 h, MTT, 72 hours incubation, KBM5-T315I cells; read-out: GI50 KBM5-T315I
Summary of the method: as §1

[5] = system: HCC827 (human non-small cell lung cancer cells); assay: MTT cancer cell growth inhibition; assay type: cell-based; settings: Homo sapiens, HCC827, 72 h, MTT, 72 hours incubation, HCC827 cells; read-out: GI50 HCC827
Summary of the method: as §1

[6] = system: A549 (human lung cancer cells); assay: MTT cancer cell growth inhibition; assay type: cell-based; settings: Homo sapiens, A549, 72 h, MTT, 72 hours incubation, read-out: GI50 A54
Summary of the method: as §1

[7] = system: KBM-5 (human chronic myelogenous leukemia); assay: MTT cancer cell growth inhibition; assay type: cell-based; settings: Homo sapiens, KBM5, 72 h, MTT, 72 hours incubation, KBM-5 cells; read-out: GI50 KBM-5
Summary of the method: as §1

[8] = system: Huh-7 (human hepatoma cells); assay: MTT cancer cell growth inhibition; assay type: cell-based; settings: Homo sapiens, Huh-7, 72 h, MTT, 72 hours incubation, Huh-7 cells; read-out: GI50 Huh-7
Summary of the method: as §1

[9] = system: DU145 (human prostate cancer cells); assay: MTT cancer cell growth inhibition; assay type: cell-based; settings: Homo sapiens, DU-145, 72 h, MTT, 72 hours incubation, read-out: GI50 Du1
Summary of the method: as §1

[10] = system: lncap (prostate cancer cells); assay: MTT cancer cell growth inhibition; assay type: cell-based; settings: Homo sapiens, LNCaP, 72 h, MTT, 72 hours incubation, read-out: GI50 lnca
Summary of the method: as §1

[11] = system: BGC-823 (human gastric cancer cells); assay: MTT cancer cell growth inhibition; assay type: cell-based; settings: Homo sapiens, BGC-823, 72 h, MTT, 72 hours incubation, read-out: GI50 BG
Summary of the method: as §1

[12] = system: U937 (human leukemia cells); assay: MTT cancer cell growth inhibition; assay type: cell-based; settings: Homo sapiens, U-937, 72 h, MTT, 72 hours incubation, read-out: GI50 U93
Summary of the method: as §1

[13] = system: N-87 (human gastric cancer cells); assay: MTT cancer cell growth inhibition; assay type: cell-based; settings: Homo sapiens, 72 h, MTT, 72 hours incubation, N-87 cells; read-out: GI50 N-87
Summary of the method: as §1

[14] = system: K562 (human leukemia cells); assay: MTT cancer cell growth inhibition; assay type: cell-based; settings: Homo sapiens, K562, 72 h, MTT, 72 hours incubation, K562 cells; read-out: GI50 K562
Summary of the method: as §1

[15] = system: SGC-7901 (human gastric cancer cells); assay: MTT cancer cell growth inhibition; assay type: cell-based; settings: Homo sapiens, SGC-7901, 72 h, MTT, 72 hours incubation, SGC-7901 cells; read-out: GI50 SGC-7901
Summary of the method: as §1

[16] = system: MOLT-4 (human acute lymphoblastic leukemia cells); assay: MTT cancer cell growth inhibition; assay type: cell-based; settings: Homo sapiens, MOLT-4, 72 h, MTT, 72 hours incubation, read-out: GI50 Mol
Summary of the method: as §1

[17] = system: MCF-7 (human breast cancer cells); assay: MTT cancer cell growth inhibition; assay type: cell-based; settings: Homo sapiens, MCF7, 72 h, 72 hours incubation, read-out: GI50 MCF
Summary of the method: as §1

[18] = system: PANC-1 (Pac-1, human pancreatic cancer cells); assay: MTT cancer cell growth inhibition; assay type: cell-based; settings: Homo sapiens, PANC-1, 72 h, MTT, 72 hours incubation, read-out: GI50 PAN
Summary of the method: as §1

[19] = system: MDA-MB-231 (breast cancer cells); assay: MTT cancer cell growth inhibition; assay type: cell-based; settings: Homo sapiens, MDA-MB-231, 72 h, read-out: GI50 MDA-MB-231, MTT, 72 hours incubation, MDA-MB-231 cells
Summary of the method: as §1

[20] = system: Bel-7402 (human hepatoma cells); assay: MTT cancer cell growth inhibition; assay type: cell-based; settings: Homo sapiens, Bel-7402, 72 h, MTT, 72 hours incubation, Bel-7402 cells; read-out: GI50 Bel-7402
Summary of the method: as §1

Compound	IC50 HDAC7 (HDAC7)	GI50 [1] [nM]	GI50 [4] [nM]	GI50 [5] [nM]	GI50 [7] [nM]	GI50 [8] [nM]	GI50 [13] [nM]	GI50 [14] [nM]	GI50 [15] [nM]	GI50 [19] [nM]	GI50 [20] [nM]	GI50 ([2]; HT1080 cells) [nM]	GI50 ([3]; Hela cells) [nM]	GI50 ([6]; A549 cells) [nM]	GI50 ([9]; DU145 cells) [nM]	GI50 ([10]; lncap cells) [nM]	GI50 ([11]; BGC-823 cells) [nM]	GI50 ([12]; U937 cells) [nM]	GI50 ([16]; MOLT-4 cells) [nM]	GI50 ([17]; MCF-7 cells) [nM]	other results
C/C=C1\NC(=O)c2cccc(n2)CNC(=O)C[C@@H](/C=C/CCSC(C)=O)OC(=O)[C@@H](C)NC1=O [Example 25]	no activity	42	29	33	59	62	38	27	29	92	93	–	–	–	–	–	–	–	–	–	GI50 [2]: 39200 nM; GI50 [3]: 67700 nM; GI50 [6]: 15400 nM; GI50 [9]: 1300 nM; GI50 [10]: 700 nM; GI50 [11]: 3300 nM; GI50 [12]: 2290 nM; GI50 [16]: 300 nM; GI50 [17]: 53600 nM; GI50 [18]: 550 nM
C=C1NC(=O)c2cc(SC)cc(n2)CNC(=O)C[C@@H](/C=C/CCSC(C)=O)OC(=O)[C@H](C)NC1=O [Compound 211]	no activity	73	28	55	31	24	31	19	71	85	21	40	60	40	60	30	70	40	30	70	GI50 ([18]; PANC-1 cells): 70 nM
C/C=C1\NC(=O)c2nc(ccc2F)CNC(=O)C[C@@H](/C=C/CCSC(=O)CCCC)OC(=O)[C@H](C(C)C)NC1=O [Example 39]	no activity	35	67	83	72	22	50	26	41	22	83	–	–	–	–	–	–	–	–	–	GI50 [2]: 80 nM; GI50 [3]: 70 nM; GI50 [6]: 40 nM; GI50 [9]: 20 nM; GI50 [10]: 20 nM; GI50 [11]: 50 nM; GI50 [12]: 30 nM; GI50 [16]: 20 nM; GI50 [17]: 60 nM; GI50 [18]: 80 nM
C/C=C1\NC(=O)c2ccc(C)c(n2)CNC(=O)C[C@@H](/C=C/CCSC(C)=O)OC(=O)[C@H](Cc2ccccc2)NC1=O [Example 68]	no activity	35	34	83	51	22	43	26	29	22	83	–	–	–	–	–	–	–	–	–	GI50 [2]: 80 nM; GI50 [3]: 50 nM; GI50 [6]: 20 nM; GI50 [9]: 20 nM; GI50 [10]: 20 nM; GI50 [11]: 40 nM; GI50 [12]: 30 nM; GI50 [16]: 20 nM; GI50 [17]: 30 nM; GI50 [18]: 80 nM

More lines, in order of falling GI50 [1], values ahead:

IC50 HDAC7 (HDAC7)	GI50 [1] [nM]	GI50 [4] [nM]	GI50 [5] [nM]	GI50 [7] [nM]	GI50 [8] [nM]	GI50 [13] [nM]	GI50 [14] [nM]	GI50 [15] [nM]	GI50 [19] [nM]	GI50 [20] [nM]	GI50 ([2]; HT1080 cells) [nM]	GI50 ([3]; Hela cells) [nM]	GI50 ([6]; A549 cells) [nM]	GI50 ([9]; DU145 cells) [nM]	GI50 ([10]; lncap cells) [nM]	GI50 ([11]; BGC-823 cells) [nM]	GI50 ([12]; U937 cells) [nM]	GI50 ([16]; MOLT-4 cells) [nM]	GI50 ([17]; MCF-7 cells) [nM]	Compound	other results
no activity	62	37	48	69	57	35	35	84	97	39	30	20	40	30	80	60	60	70	70	C=C1NC(=O)c2ccc(SC)c(n2)CNC(=O)C[C@@H](/C=C/CCSC(C)=O)OC(=O)[C@H](C)NC1=O [Compound 212]	GI50 ([18]; PANC-1 cells): 50 nM
no activity	58	26	32	38	31	29	15	31	41	76	30	20	50	70	20	40	20	50	30	C/C=C1\NC(=O)c2cc(SC)cc(n2)CNC(=O)C[C@@H](/C=C/CCSC(C)=O)OC(=O)[C@H](Cc2ccc(O)cc2)NC1=O [Compound 202]	GI50 ([18]; PANC-1 cells): 30 nM
no activity	38	53	77	71	28	77	86	91	23	37	10	30	60	50	30	740	20	30	70	C/C=C1\NC(=O)c2nc(ccc2SC)CNC(=O)C[C@@H](/C=C/CCS)OC(=O)[C@H](CC)NC1=O [Compound 229]	GI50 ([18]; PANC-1 cells): 50 nM
